Read-outs that look alike come from different tables or passages of the source.
Experiments:
[1] = Oral Bioavailability (PO) and Pharmacokinetics Assay; format: in vivo, Sprague-Dawley rats; conditions: rat; for Cmax: read-out: C0 or Cmax (ng/mL): Cmax; for half-life: read-out: T½ (converted)
[2] = as above; format: in vivo, Sprague-Dawley rats; conditions: rat; for AUC(0-t) / clearance / C0 (back-extrapolated initial plasma concentration after IV dose) / Vd: male, Sprague-Dawley, plasma; for C0 (back-extrapolated initial plasma concentration after IV dose): read-out: C0 or Cmax (ng/mL): C0; for Vd: iv, read-out: Vss; for Vd / Vss: 1 mg/kg
Protocol: The pharmacokinetics and oral bioavailability of various compounds was evaluated following IV or PO administration to fasted male Sprague-Dawley rats (N=3/route/dose). Each compound was administered to fasted male Sprague-Dawley rats as a single dose of 1 mg/kg (IV) or 5 mg/kg (PO). For IV dosing, each compound was formulated in 10% DMA/15% Solutol/75% HPβ-CD (20%) as a 1 mg/mL solution for IV (1 mL/kg) and for PO (5 mL/kg) administrations.
Blood samples (0.250 mL) were collected into EDTA tubes then processed to generate plasma samples. Blood samples were collected at pre-dose, 0.083, 0.25, 0.5, 1, 2, 4, 8 and 24 hours post-dose administration. Plasma concentrations of each compound were determined using LC-MS/MS with a lower limit of quantitation of 1.0 ng/mL. The pharmacokinetic parameters were determined by non-compartmental methods using WinNonlin.
The pharmacokinetic parameters of each compound were determined by non-compartmental analysis (Model 201 for IV administration and Model 200 for PO administration) using WinNonlin Version 6.4 (Pharsight, Mountain View, Calif.). The area under the curve from the time of dosing to the last measurable concentration, AUC(0-t), was calculated by the linear trapezoidal rule. The area under the concentration-time curve extrapolated to infinity, AUC(0-∞), was calculated as follows: AUC(0-∞)=AUC(0-t)+Clast/k
Where Clast is the last measurable concentration and k is the first order rate constant associated with the terminal elimination phase, estimated by linear regression of log concentration versus time. The half-life (T1/2) of the terminal elimination phase was estimated based on the following equation: T1/2=0.693/k
K was determined based on at least three timepoints with R^2≥0.9. Additional parameters were calculated as follows: CL=Dose/AUC(0-∞)
Where CL is the clearance of An2H compound in L/hr/kg, Dose is the administered dose in mg/kg. Mean residence time (MRT) was calculated as follows: MRT=AUMC(0-∞)/AUC(0-∞)
Where area under the first moment curve extrapolated to infinity (AUMC(0-∞)) was calculated as follows: AUMC(0-∞)=AUMClast+tlast*Clast/k+Clast/k^2
The steady state volume of distribution (Vss) was calculated as follows: Vss=CL×MRT.
The oral bioavailability based on AUC(0-t) was calculated as follows: F (%)=AUCPO/AUCIV×DoseIV/DosePO×100. For IV administration, the initial concentration, Co is reported and is an extrapolated value. For PO administration, the maximum concentration, Cmax is report and is an observed value.

[3] = system: subcutaneous HCT-116 (colon cancer) xenograft; experiment: In Vivo Cancer Xenograft Assay, HCT-116; set-up: species or system nude mice; conditions: 5 or 10 mg/kg daily IP, tumor volume to day 26
Protocol: (§1) Compound F was evaluated for in vivo therapeutic efficacy in the treatment of subcutaneous HCT-116 (colon cancer) and Calu-6 (lung cancer) xenograft models in nude mice.
(§2) Each mouse was inoculated subcutaneously at the flank region with either HCT-116 or Calu-6 tumor cells ([…]) in 0.1 ml of 1×PBS mixed with Matrigel (1:1) for tumor development and xenotransplantation.
(§3) Twenty (20) animals with approx […] tumors were selected for HCT-116 follow up experiment and randomly placed into Groups 1, 2, 3, and 4, wherein Group 1 was for mice administered with a vehicle negative control; Group 2 was positive control of Mice treated with Bevacizumab at 5 mg/kg every three days; Group 3 was mice treated with 5 mg/kg of Compound f daily for up to 20 days; and Group 4 was mice treated with 10 mg/kg of Compound F daily for up to 20 days. The vehicle with or without drug was administered to the mouse by intraperitoneal injection. […]
(§4) After tumor cells inoculation, the animals were checked daily for morbidity and mortality. […] Death and observed clinical signs were recorded. Tumor volumes were measured every three days in two dimensions using an electronic caliper, and the volume data are expressed in mm^3 using the formula: V=0.5 a×b2 where a and b are the long and short diameters of the tumor, respectively. Tumor volume average was then recorded for each day for groups 1-4 until day 26. […]

[4] = system: subcutaneous Calu-6 (lung cancer) xenograft; experiment: In Vivo Cancer Xenograft Assay, Calu-6; set-up: species or system nude mice; conditions: 5 or 10 mg/kg daily IP
Protocol: as §1, §2, §3, §4

[5] = male, Sprague-Dawley, plasma, PO 5 mg/kg
[6] = male, Sprague-Dawley, plasma, PO 5 mg/kg, read-out: F (%) oral bioavailability
[7] = male, Sprague-Dawley, plasma, iv, 1 mg/kg, IV bolus 1 mg/kg
[8] = male, Sprague-Dawley, plasma, po, 5 mg/kg, PO 5 mg/kg
[9] = male, Sprague-Dawley, plasma, IP 3 mg/kg

Work on `O=C(Nc1nc(NC(=O)c2ccccc2)n(-c2ccccc2)n1)c1ccccc1` [Compound A, N,N′-(1-phenyl-1H-1,2,4-triazole-3,5-diyl)dibenzamide] yielded a bioavailability ([1]; male, Sprague-Dawley, plasma, IV bolus 1 mg/kg, read-out: F (%)) of 100%, a Tmax [1, 5] of 0.417 h and a Cmax [1, 5] of 249 ng/mL. The bioavailability [1, 6] was 6.85%, the half-life [1, 7] was 0.85 h and the half-life [1, 8] was 1.6 h. The “T½” value ([1]; PO 5 mg/kg, 5 mg/kg) was 1.62 h, the AUC(0-t) ([2]; IV bolus 1 mg/kg) was 1100 ng·h/mL and the clearance ([2]; IV bolus 1 mg/kg) was 15.7 mL/min/kg. The C0 (back-extrapolated initial plasma concentration after IV dose) ([2]; IV bolus 1 mg/kg) was 4520 ng/mL, the AUC(0-t) ([2]; PO 5 mg/kg) was 371 ng·h/mL and the Vd ([2]; IV bolus 1 mg/kg) was 0.38 L/kg. For the same compound, the “Vss” value ([2]; IV bolus 1 mg/kg) was 0.381 L/kg.
`Cc1ccccc1C(=O)Nc1nc(NC(=O)c2ccccc2)nn1-c1ccccc1` [Compound K, N-(5-benzamido-2-phenyl-1,2,4-triazol-3-yl)-2-methyl-benzamide] showed a Tmax [1, 5] of 0.42 h, a Cmax [1, 5] of 52.4 ng/mL and a bioavailability [1, 6] of 4%. The half-life [1, 7] was 0.6 h, the half-life [1, 8] was 2.1 h and the “Oral Bioavilability (PO PK) F” value [1] was “F = 4%”. For the same compound, the AUC(0-t) ([2]; IV bolus 1 mg/kg) was 902 ng·h/mL, the clearance ([2]; IV bolus 1 mg/kg) was 18.4 mL/min/kg and the C0 (back-extrapolated initial plasma concentration after IV dose) ([2]; IV bolus 1 mg/kg) was 2120 ng/mL. For the same compound, the AUC(0-t) ([2]; PO 5 mg/kg) was 172 ng·h/mL, the Vd ([2]; IV bolus 1 mg/kg) was 0.71 L/kg and the “Vss” value ([2]; IV bolus 1 mg/kg) was 0.707 L/kg.
For `Cc1ccccc1C(=O)Nc1nc(NC(=O)c2ccccc2C)n(-c2ccccc2)n1` [Compound F, 2-methyl-N-[5-[(2-methylbenzoyl)amino]-1-phenyl-1,2,4-triazol-3-yl]benzamide], the “delay of subcutaneous HCT-116 tumor growth” value [3] was “effective of delaying growth”, the AUC(0-t) [1, 9] was 9590 ng·h/mL and the Tmax [1, 9] was 1.3 h. The Cmax [1, 9] was 1470 ng/mL, the bioavailability ([1]; male, Sprague-Dawley, plasma, IP 3 mg/kg, read-out: F systemic bioavailability) was 75% and the half-life ([1]; male, Sprague-Dawley, plasma, ip, 3 mg/kg, IP 3 mg/kg) was 3.2 h. For the same compound, the half-life [1, 7] was 2.5 h, the “delay of subcutaneous Calu-6 tumor growth” value [4] was “effective of delaying growth” and the AUC(0-t) ([2]; IV bolus 1 mg/kg) was 4270 ng·h/mL. For the same compound, the clearance ([2]; IV bolus 1 mg/kg) was 4.03 mL/min/kg, the C0 (back-extrapolated initial plasma concentration after IV dose) ([2]; IV bolus 1 mg/kg) was 5980 ng/mL and the Vd ([2]; IV bolus 1 mg/kg) was 0.406 L/kg.
With `O=C(/C=C/c1ccccc1)Nc1nc(NC(=O)c2ccccc2)nn1-c1ccccc1` [Compound C, N-(5-cinnamamido-1-phenyl-1H-1,2,4-triazol-3-yl)benzamide] the Tmax [1, 5] was 0.38 h, the Cmax [1, 5] was 50.5 ng/mL and the bioavailability [1, 6] was 2.4%. The half-life [1, 7] was 0.71 h, the half-life [1, 8] was 2.3 h and the “Oral Bioavilability (PO PK) F” value [1] was “F = 2%”. For the same compound, the AUC(0-t) ([2]; IV bolus 1 mg/kg) was 1030 ng·h/mL, the clearance ([2]; IV bolus 1 mg/kg) was 16.6 mL/min/kg and the C0 (back-extrapolated initial plasma concentration after IV dose) ([2]; IV bolus 1 mg/kg) was 3980 ng/mL. The AUC(0-t) ([2]; PO 5 mg/kg) was 114 ng·h/mL, the Vd ([2]; IV bolus 1 mg/kg) was 0.42 L/kg and the “Vss” value ([2]; IV bolus 1 mg/kg) was 0.416 L/kg.
Compound `Cc1ccccc1C(=O)Nc1nc(NC(=O)c2ccccc2)n(-c2ccccc2)n1` [Compound H] has a Tmax [1, 5] of 1.33 h, a Cmax [1, 5] of 91 ng/mL and a bioavailability [1, 6] of 6.2%. The half-life [1, 7] was 0.69 h, the half-life [1, 8] was 1.7 h and the “Oral Bioavilability (PO PK) F” value [1] was “F = 6%”. It also gave an AUC(0-t) ([2]; IV bolus 1 mg/kg) of 1370 ng·h/mL, a clearance ([2]; IV bolus 1 mg/kg) of 12.2 mL/min/kg and a C0 (back-extrapolated initial plasma concentration after IV dose) ([2]; IV bolus 1 mg/kg) of 6740 ng/mL. The AUC(0-t) ([2]; PO 5 mg/kg) was 410 ng·h/mL, the Vd ([2]; IV bolus 1 mg/kg) was 0.4 L/kg and the “Vss” value ([2]; IV bolus 1 mg/kg) was 0.401 L/kg.
